Where “and” joins values, the source holds several entries; their conditions need not be identical. Equal entries are not always repeated. Calls of active or inactive are those of the source.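 The calls were made as follows: active = compounds giving half or more protection of infected cells from virus-caused growth loss, again on retest; inactive = the rest.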
Test system: CEM cells HIV-1 protection, formazan growth assay
Test: NCI AIDS Antiviral Assay
Settings: for IC50: measured here: growth of uninfected CEM cells
How it was run: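 Human CEM cells, uninfected and HIV-1-infected, exposed to five drug concentrations; growth measured by soluble formazan assay and scored as percent protection from infection, with protecting compounds retested.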

CCCCCC(=O)Cc1cc(OC)cc2c1C(=O)Oc1cc(O)c(C(=O)O)c(CC(=O)CCCCC)c1O2
EC50: > 339 µM
IC50: 112 µM

Cc1cn(C2CCC3(CO)CC23)c(=O)[nH]c1=O (stereo not given)
EC50: > 50.1 µM
IC50: > 50.1 µM

CC(=O)[CH-]C(=O)c1ccccc1.CC(=O)[CH-]C(=O)c1ccccc1.[CH2-]CCC.[CH2-]CCC.[Sn+4]
EC50: > 46.8 µM
IC50: 0.776 µM

CC1OC(O[C@@H]2C=C3CC[C@@H]4[C@H](CC[C@]5(C)[C@@H](c6ccc(=O)oc6)CC[C@]45O)[C@@]3(C)CC2)C(O)C(OC2OC(CO)C(O)C(O)C2O)C1O (stereo not given in full)
EC50: > 0.02 µM
IC50: 0.00295 µM

Cc1nc(C(N)=S)sc1C(=O)CC(=O)C(=O)Nc1ccc(Br)cc1
EC50: > 85.1 µM
IC50: > 85.1 µM

COc1cccc(/C=C2/Sc3scc(-c4ccccc4)[n+]3C2=O)c1O
EC50: > 200 µM
IC50: 11.7 µM

N#CCc1ccc(C(C#N)/C(CCCC(=O)Nc2cccc([N+](=O)[O-])c2)=N\NC(=O)NN)cc1 (stereo not given)
EC50: > 389 µM
IC50: > 389 µM

CC(CCC(C)C(=O)O)C(=O)O (stereo not given)
EC50: > 1450 µM
IC50: > 1450 µM

COC(=O)Nc1cn2c(n1)sc1ccccc12
EC50: > 200 µM
IC50: 15.8 µM

N#CN=C(N)NC#N
EC50: > 1700 µM
IC50: > 1700 µM

CCC[CH2][Sn]1([CH2]CCC)[O]C(=O)c2cccc(OC)c2[O]1
outcome: inactive

COC(=O)c1c2c(cc3c1CC1(Cc4cc5c(cc4C1=O)CCC5)C3)CCC2 (stereo not given)
EC50: > 200 µM
IC50: 52.5 µM

O=C1Oc2ccccc2C(=O)/C1=C1\SSC(c2ccccc2)=C1c1ccccc1
EC50: > 200 µM
IC50: > 200 µM

COc1ccc(N=Nc2ccc3oc(=O)c(C(=O)Nc4ccc(Cl)cc4)cc3c2)cc1
EC50: > 200 µM
IC50: 33.1 µM

O=C(COC(=O)c1cccc2c(=O)c3ccccc3[nH]c12)Nc1ccc(S(=O)(=O)Nc2ncccn2)cc1
outcome: inactive

Cc1[nH]c2c(ccc3c2ccc2c(=O)c(C)c(C)[nH]c23)c(=O)c1C
EC50: > 200 µM
IC50: 138 µM

Cc1cc(CS(=O)(=O)/C=C/c2ccccc2[N+](=O)[O-])c(CS(=O)(=O)/C=C/c2ccccc2[N+](=O)[O-])cc1C
EC50: > 11.5 µM
IC50: > 11.5 µM

Cc1cc(NS(=O)(=O)c2ccc(Nc3c4ccccc4nc4c(C(=O)NC(CO)(CO)CO)cccc34)cc2)no1
EC50: > 200 µM
IC50: 11.2 µM

c1cc(-c2cnc(-c3ccc4c(c3)CCCO4)o2)ccn1
EC50: > 200 µM
IC50: 50.1 µM

NC1=NS(=O)(=O)Nc2nc(-c3ccc([N+](=O)[O-])cc3)[nH]c21
EC50: > 200 µM
IC50: > 200 µM

CN(C)NC(=S)C(F)(F)C(F)(F)F
EC50: > 200 µM
IC50: 10.2 µM

CCC(NC1=NCCO1)c1cccs1 (stereo not given)
EC50: > 200 µM
IC50: 79.4 µM

O=C1CSC2=NCCN12
EC50: > 200 µM
outcome: inactive
IC50: > 200 µM

Cc1[nH]c(=O)nc2c1C(NCCCN(C)C)c1cc(Cl)ccc1N2 (stereo not given)
EC50: > 200 µM
IC50: 8.91 µM

Cc1cccc(C)c1N=Nc1ccc(O)c(CN(C)C)c1
EC50: > 200 µM
IC50: 39.8 µM

NC(=O)Nc1c([N+](=O)[O-])cc(C(F)(F)F)cc1[N+](=O)[O-]
outcome: inactive

CCCCP(CCCC)(CCCC)=C(C(=O)OC)C(C(=O)OC)=C1SC(C(=O)OC)=C(C(=O)OC)S1
EC50: > 200 µM
IC50: 33.1 µM

COc1ccccc1C=NC12CC3CC(CC(C3)C1)C2
EC50: > 132 µM
IC50: 110 µM

COCOC1/C=C/CCCCC(=O)C(C)C#CC1 (stereo not given)
EC50: > 200 µM
IC50: 7.24 µM

CN(C)C(=S)SC(=S)N(C)C
EC50: > 200 µM
IC50: 11 µM

CS1(=O)=CC(=O)CC(c2ccccc2)C1 (stereo not given)
EC50: > 1120 µM
IC50: > 1120 µM

NS(=O)(=O)c1cc2c(cc1Cl)NC(CC1CCCC1)NS2(=O)=O (stereo not given)
EC50: > 200 µM
IC50: > 200 µM

CCOc1ccc(C2(C)OC(=O)C3CCCCC32)c2ccccc12 (stereo not given)
outcome: inactive

CCOC(=O)C(=O)/C(=C/N1CC(=O)NC1=S)C(=O)OCC
EC50: > 200 µM
IC50: > 200 µM

CCOC(=O)C(C(=S)SC)c1nn2c(=O)cc(C)nc2s1 (stereo not given)
EC50: > 200 µM
IC50: 19.1 µM

CCOC(=O)c1c(N2CCOCC2)[nH]c(=O)c(C(c2ccc(N(C)C)cc2)c2c(O)c(C(=O)OCC)c(N3CCOCC3)[nH]c2=O)c1O
EC50: > 200 µM
IC50: > 200 µM

CCOC(=O)[C@H]1Nc2ccc(O)cc2C2c3ccccc3CC21 (stereo not given in full)
EC50: > 302 µM
IC50: 56.2 µM

C(/C=C/Nc1ccc(-c2ccccc2)cc1)=Nc1ccc(-c2ccccc2)cc1
EC50: > 200 µM
IC50: > 200 µM

CO[C@H]1/C=C/O[C@@]2(C)Oc3c(C)c(O)c4c(O)c(c(/C=N/N5CCNCC5)c(O)c4c3C2=O)NC(=O)/C(C)=C\C=C\[C@H](C)[C@H](O)[C@@H](C)[C@@H](O)[C@@H](C)C(OC(C)=O)[C@@H]1C (stereo not given in full)
EC50: > 200 µM
IC50: 50.1 µM

COc1nc2ccc(COc3ccc(C(=O)O)cc3)cc2nc1OC
EC50: > 200 µM
IC50: 132 µM

CCOc1cnc([C@H]2CCC3[C@@H]4CC=C5C[C@@H](OC(C)=O)CC[C@]5(C)C4CC[C@@]32C)s1 (stereo not given in full)
EC50: > 21.4 µM
IC50: > 21.4 µM

CN=C(N)c1ccc(N=C(N)c2cccc(C(N)=Nc3ccc(C(N)=NC)cc3)c2)cc1
EC50: > 200 µM
IC50: > 200 µM

CC1(C)CCc2cc3c(cc2O1)OC(C)(C)CC3=O
outcome: inactive

COc1ccc(S(=O)(=O)c2nnc(S(=O)(=O)Cc3ccccc3)s2)cc1
EC50: > 200 µM
IC50: 3.63 µM

Nc1nc(SSc2nc(N)nc3c2ncn3C2OC(CO)C(O)C2O)c2ncn(C3OC(CO)C(O)C3O)c2n1 (stereo not given)
EC50: > 20 µM
IC50: 0.339 µM

CSc1nc(N)n(C(=O)c2ccc([N+](=O)[O-])cc2)n1
EC50: > 13.5 µM
IC50: > 13.5 µM

Nc1ccn(CCO)c(=O)n1
EC50: > 1620 µM
IC50: > 1620 µM

Cc1ccc(-n2c(=S)n(-c3ccccc3C)c3nc4ccccc4nc2/c3=N\Nc2ccc(Cl)cc2)cc1
EC50: 117 µM
IC50: 123 µM

CCON1CC(C(=O)OC)=C(O)C1=O
EC50: > 200 µM
IC50: > 200 µM

CCC12C=CCN3CC[C@@]4(c5ccc(OC)cc5N(C)[C@H]4[C@@](O)(C(=O)OC)[C@@H]1OC(C)=O)C32 (stereo not given in full)
outcome: inactive

CC(O)CN(N)CC(C)O (stereo not given)
outcome: inactive

N#Cc1cccc(C2C(=O)c3ccc(C(=O)c4ccc5c(c4)C(=O)N(c4ccc(Oc6ccc(N7C(=O)c8ccc(C(=O)c9ccc%10c(c9)C(=O)N(c9cccc(C#N)c9)C%10=O)cc8C7=O)cc6)cc4)C5=O)cc3C2=O)c1 (stereo not given)
EC50: > 3.47 µM
IC50: > 3.47 µM

Cc1ccc(C2=Nc3c(N)nc(N)nc3NC(c3ccccc3)C2)cc1 (stereo not given)
EC50: > 200 µM
IC50: 4.27 µM and 3.72 µM

CC1(C)OC(CCO)CN1C(=O)OCc1ccccc1 (stereo not given)
EC50: 195 µM
IC50: > 200 µM

CCOC(=O)C(C)(CCC(C)(C(=O)OCC)C(=O)OCC)C(=O)OCC
EC50: > 200 µM
IC50: 75.9 µM

Cc1[nH]c(=S)[nH]c(=O)c1CCl
EC50: > 200 µM
IC50: 107 µM

O=c1ccn(C2CC(O)C(CO)O2)c(=O)[nH]1 (stereo not given)
EC50: > 589 µM
IC50: 309 µM

CC(=O)Nc1sc(Br)cc1S(=O)(=O)c1ccc(Cl)cc1
EC50: > 200 µM
IC50: 31.6 µM

CC(=O)NC1C(=O)N([C@H](COCc2ccccc2)c2ccccc2)[C@@H]1COC(C)(C)C (stereo not given in full)
EC50: > 295 µM
IC50: 186 µM

CC(C)=CCCC1(C)C=Cc2c(cc(O)c3c(=O)c4cccc(O)c4oc23)O1 (stereo not given)
EC50: > 200 µM
IC50: 33.9 µM

CC1=NC(=Cc2ccc(Cl)cc2)C(=O)N1n1c(-c2ccccc2)nc2ccccc2c1=O
EC50: > 200 µM
IC50: 75.9 µM

Nc1ccc(Sc2c3ccccc3nc3ccccc23)cc1
EC50: > 17.4 µM
IC50: 9.55 µM

CNC(=O)c1ccccc1CNC(=S)Nc1cccc(C)c1
EC50: > 200 µM
IC50: > 200 µM

CN(C)c1ccc(-n2cccc2)cc1
EC50: > 200 µM
IC50: > 200 µM

CC(=O)OCCc1cccnc1/C=N/O
EC50: > 1200 µM
IC50: 204 µM

COc1ccc(NS(=O)(=O)c2ccc(NC(NC(=O)CC(C)C)(C(F)(F)F)C(F)(F)F)cc2)nn1
EC50: > 200 µM
IC50: 191 µM

N#CC(C#N)C(c1ccccc1)c1ccccc1
outcome: inactive

O=c1[nH]c(=O)n(C2CC(O)C(CO)O2)c2ncncc12 (stereo not given)
EC50: > 200 µM
IC50: > 200 µM

CC(C(=O)NCNC(=O)c1ccccc1)C(=O)Nc1ccccc1 (stereo not given)
outcome: inactive

CCCC(=O)Nc1cc(/C=C/C(=O)N2CC(CCl)c3c2cc([N+](=O)[O-])c2ccccc32)n(C)c1 (stereo not given)
EC50: > 2 µM
IC50: 0.794 µM

O=C(CCc1cc(-c2ccc(F)cc2)n[nH]1)N(Cc1ccccc1)Cc1ccccc1
EC50: > 17.4 µM
IC50: > 17.4 µM

C[N+](C)(C)CCS(=O)(=O)[O-]
EC50: > 200 µM
IC50: > 200 µM

C=C1CN(S(=O)(=O)c2ccc(C)cc2)CCCN(C(C)CC)CCCN(S(=O)(=O)c2ccc(C)cc2)C1 (stereo not given)
EC50: > 200 µM
IC50: > 200 µM

N#C/C(=C\c1ccc(F)cc1)c1nc2ccccc2c(=O)[nH]1
outcome: inactive

COc1cccc(CCn2c(N)c(C#N)c3ccc([N+](=O)[O-])cc3c2=O)c1
EC50: > 200 µM
IC50: 1.12 µM

CC(=O)C(=[N+]=[N-])C(=O)N(C)CCC#N
EC50: > 200 µM
IC50: > 200 µM

CN(/N=C/c1cccc2cccnc12)c1ccccc1
outcome: inactive

CCOC(=O)c1cc(Br)c(-c2onc(C)c2Br)n1C
EC50: > 200 µM
IC50: 89.1 µM

Cc1nnc(SCC2=C(C(=O)O)N3C(=O)C(NC(=O)Cn4cnnn4)C3SC2)s1 (stereo not given)
EC50: > 200 µM
IC50: > 200 µM

Oc1cc(O)c(Oc2cccc(O)c2O)c(O)c1
EC50: > 1000 µM
IC50: 38.9 µM

CC(=O)Nc1ccc2c(c1)nc1c3ccccc3ccn21
EC50: > 200 µM
IC50: 29.5 µM

Cc1ccc(/C=C/C(=O)c2sc(-c3cccnc3)nc2C)cc1
EC50: > 22.4 µM
IC50: > 22.4 µM

CC(=O)c1cccc(NC(=O)C(=O)c2c(O)c3ccccc3oc2=O)c1
EC50: > 708 µM
IC50: 380 µM

COc1ccc(C[C@@H]2NC[C@@H](O)[C@@H]2OC(C)=O)cc1
EC50: > 4.17 µM
IC50: 0.017 µM

C1=Nc2ccc(cc2)-c2ccc(cc2)N=Cc2ccccc2OCc2cccc(n2)COc2ccccc21
EC50: > 200 µM
IC50: > 200 µM

— PubChem BioAssay AID179 (DTP/NCI, 2004)
